Reference: article PMC5592744 (Frontiers in Microbiology, 2017)

Tests used:
Assay type in all cases: biochemical
Conditions in all cases: 76 μM chalcone, FRET assay
R197A-SrtA = R197A-SrtA (Staphylococcus aureus, UniProt Q2FV99, R197A)
I182A-SrtA = I182A-SrtA (Staphylococcus aureus, UniProt Q2FV99, I182A)
V168A-SrtA = V168A-SrtA (Staphylococcus aureus, UniProt Q2FV99, V168A)

Measured: sensitivity of mutant SrtA to chalcone compared with WT-SrtA

O=C(/C=C/c1ccccc1)c1ccccc1 [chalcone]
significantly less sensitive: all assays above
